In experiment [1] the target is T1, hMC4r (Homo sapiens, UniProt P32245).
T1 construct: expressed in transfected cells; host or cells: HEK-293
Briefly: cAMP accumulation functional assay in HEK-293 cells expressing hMC4r. It is filed as cell-based. The following applies: agonist = 70% or greater intrinsic activity.
Procedure: Accumulation of intracellular cAMP was examined as a measure of the ability of the MC4r peptides to elicit a functional response in HEK-293 cells that express MC4r. Confluent HEK-293 cells that express recombinant hMC4r were detached from culture plates by incubation in enzyme-free cell dissociation buffer. Dispersed cells were suspended in Earle's Balanced Salt Solution containing 10 mM HEPES (pH 7.5), 1 mM MgCl2, 1 mM glutamine, 0.5% albumin and 0.3 mM 3-isobutyl-1-methyl-xanthine (IBMX), a phosphodiesterase inhibitor. […] Cells were exposed for 15 minutes at 37° C. to peptides of the present invention dissolved in DMSO (final DMSO concentration of 1%) at a concentration range of 0.05-5000 nM in a total assay volume of 200 μL. […] Data analysis was performed by nonlinear regression analysis with Graph-Pad Prism® software. The maximum efficacies of the test peptides of the present invention were compared to that achieved by the reference melanocortin agonist NDP-α-MSH.

Experiment [2] in a line: diet induced obese Sprague-Dawley rats, GLP-1 infusion and Peptide No. 154 b.i.d., fasted glucose and insulin (Example 9). In kind it is in vivo, rat. As to conditions: DIO rats, 1.0 mg/kg Peptide No. 154 b.i.d. alone. As to the method: 9. MC4r 154 was evaluated with GLP-1 to determine effect on body weight and feed intake in diet induced obese Sprague-Dawley rats. Rats were acquired at 17 weeks and pre-conditioned for 5 weeks on high fat diet prior to dosing. No sharp increase in weight was noted, likely due to late onset of the high fat diet. At study day −2, baseline GTT and insulin levels were assessed on 16-hour fasted animals. Animals were then permitted a 2-day recovery period, and on study day 0, animals were randomized into treatment groups by body weight and Alzet continuous infusion pumps containing either vehicle or GLP-1 (for dosing at either 10 or 100 μg/kg/day) were implanted. Beginning on study day 1, body weight and feed weights were taken in the mornings. Beginning on study day 4, twice daily (b.i.d.) subcutaneous dosing of saline was initiated for all groups other than the treatment naïve group to acclimate the animals to handling and subcutaneous dosing. […] Animals were fasted for the 16 hours prior to the GTT.
Data is shown as the percent change from study day −2 baseline test±SEM.
FIG. 4 compares the fasted insulin levels at study day −2 and study day 12, with insulin measured after 16 hour fast and prior to GTT testing. Data is shown as ng/mL insulin±SEM.

Experiment [3] can be described thus: DIO mice, single daily subcutaneous bolus dose of Peptide No. 154 (Example 10). It is filed as in vivo, mouse. As to conditions: single daily subcutaneous dose of 3 mg/kg, on day 5, ±0.6 SEM. As to the method: 10. […] By contrast, animals receiving a single daily subcutaneous dose of 3 mg/kg continuously lost weight over 5 days, and reached a maximum weight loss on day 5 of 4.2 g±0.6 SEM compared to baseline (study day 0).

Experiment [4] can be described thus: diet induced obese rats, GLP-1 infusion and Peptide No. 154 twice daily, body weight and feed intake (Example 11). In kind it is in vivo, rat. The following applies: DIO rats. As to the method:
11. […] Each treatment group was compared to the vehicle group using t-test, one-way ANOVA or two-way ANOVA followed by Dunnett's multiple comparisons (GraphPad). A p value<0.05 was considered to represent a significant difference.
Individual body weights were measured on study days 1-9. Percent change in body weight is calculating according to this formula: 100*(value-baseline)/baseline, where value is the weight of the animal on study day in question and baseline is the weight of the same animal on study day −1.
On days 1-4, feeds were weighed at 0, and 24 hours after lights off. On days 5-9, feeds were weighed at 0, 2, 6 and 24 hours after lights off.

A short description of experiment [5]: diet induced obese mice, Peptide No. 154 with GLP-1, Alzet pumps (Example 8). As to conditions: DIO mice, continuous infusion of 30 mg/kg/day; lost weight only for the first two days; ±0.34 SEM. It is filed as in vivo, mouse. As to the method: Groups 1, 2 and 4 were provided ad libitum with a 45% high fat rodent diet. Animals in Group 3 were pair-fed to Group 2. The amount of food consumed in Group 2 was the amount of food given to Group 3 in the next 24 hour period. For group 3 (pair-fed group), the pump was implanted 1 day later than other groups to account for pair-feeding. On day −2 and day 6, animals from Groups 1, 2, and 4 were fasted overnight and baseline and terminal glucose tolerance tests (GTT) was conducted. GTT and insulin levels in Group 3 were conducted one day later. Body weight and food intake were measured each day. To conduct the GTT, on study day −2 (−1 for Group 3) (baseline test) and day 6 (7 for Group 3) (termination test), 1 g/kg glucose was orally administered. Glucose levels were taken prior to glucose administration and 15, 30, 60, 90 and 120 minutes post-glucose administration.
Data is expressed as percent change at the termination test, ±standard deviation (SD) from the baseline test. This was calculated as: (AUCday 7−AUCday −2)[…] In FIG. 1, diet induced obese mice were administered MC4r 154 (30 mg/kg/day) either with or without 0.1 mg/kg/day GLP-1, with one group pair fed to the MC4r 154 group but administered only GLP-1 (“Pair-Fed to MC4r 154+GLP-1”).
Data is shown as the average of body weight change in grams±standard error of the mean (SEM) from study day 0.

For experiment [6], the target named is T1, hMC4r. Briefly: competitive inhibition binding assay with Eu-NDP-α-MSH (time-resolved fluorometry). As to the method: After incubation for 90 minutes at 37° C., the reaction was stopped by filtration over AcroWell 96-well filter plates (Pall Life Sciences). The filter plates were washed 4 times with 200 μL of ice-cold phosphate-buffered saline. DELFIA Enhancement solution (PerkinElmer Life Sciences) was added to each well. […] Each assay was conducted in duplicate and mean values were utilized. Ki values were determined by curve-fitting with Graph-Pad Prism® software using a one-site fixed-slope competition binding model.

Experiment [7] has as its target T1, hMC4r. Briefly: competitive inhibition binding assay with [I125]-NDP-α-MSH, membrane homogenates of HEK-293 cells. As to conditions: averaged values, not marked *: [I125]-NDP-α-MSH; read-out: MC4r Ki. As to the method: Assays were performed in 96 well GF/B Millipore multiscreen filtration plates (MAFB NOB10) pre-coated with 0.5% bovine serum albumin (Fraction V). […] After incubation for 60 minutes at 37° C., the assay mixture was filtered and the membranes washed three times with ice-cold buffer. Filters were dried and counted in a gamma counter for bound radioactivity. […] Maximal specific binding (100%) was defined as the difference in radioactivity (cpm) bound to cell membranes in the absence and presence of 1 μM NDP-α-MSH. […] Each assay was conducted in triplicate and the actual mean values are described, with results less than 0% reported as 0%. Ki values for test peptides of the present invention were determined using Graph-Pad Prism® curve-fitting software.

Data on eleven molecules can be found in patent US10660939B2, “Therapies for obesity, diabetes and related indications” (Palatin Technologies, Inc., priority 2015, dated 2020).

The structures appear in SMILES notation.

T1 sequence (P32245 whole entry): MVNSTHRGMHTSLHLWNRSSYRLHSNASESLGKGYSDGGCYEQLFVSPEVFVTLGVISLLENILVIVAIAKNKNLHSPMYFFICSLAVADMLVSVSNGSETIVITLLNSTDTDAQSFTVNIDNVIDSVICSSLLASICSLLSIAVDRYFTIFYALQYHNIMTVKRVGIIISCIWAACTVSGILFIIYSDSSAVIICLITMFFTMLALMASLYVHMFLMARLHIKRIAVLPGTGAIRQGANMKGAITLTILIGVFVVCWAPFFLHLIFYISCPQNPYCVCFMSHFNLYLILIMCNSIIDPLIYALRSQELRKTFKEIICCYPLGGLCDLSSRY

As to `CC(=O)N[C@@H](CCCNC(=N)N)C(=O)N[C@H]1CC(=O)NCCCC[C@@H](C(N)=O)NC(=O)[C@H](Cc2c[nH]c3ccccc23)NC(=O)[C@H](CCCNC(=N)N)NC(=O)[C@@H](Cc2ccccc2)NC(=O)[C@H](Cc2c[nH]cn2)NC1=O` [Peptide No. 1, Ac-Arg-cyclo(Asp-His-D-Phe-Arg-Trp-Lys)-NH2], the “functional status at MC4r (agonist / partial agonist)” value at hMC4r [1] is “agonist”. In the case of `CC(=O)N[C@@H](CCCNC(=N)N)C(=O)N[C@H]1CC(=O)NCCCC[C@@H](C(N)=O)NC(=O)[C@H](Cc2c[nH]c3ccccc23)NC(=O)[C@H](CCCNC(=N)N)NC(=O)[C@@H](Cc2ccccc2)NC(=O)[C@H](C(C)C)NC1=O` [Peptide No. 16, Ac-Arg-cyclo(Asp-Val-D-Phe-Arg-Trp-Lys)-NH2], the “functional status at MC4r (agonist / partial agonist)” value on hMC4r [1] is listed as “partial agonist”. For `CC(=O)N[C@@H](CCCNC(=N)N)C(=O)N[C@H]1CC(=O)NCCCC[C@@H](C(N)=O)NC(=O)[C@H](Cc2c[nH]c3ccccc23)NC(=O)[C@H](CCCNC(=N)N)NC(=O)[C@@H](Cc2ccccc2)NC(=O)[C@H](CCC(N)=O)NC1=O` [Peptide No. 32, Ac-Arg-cyclo(Asp-Gln-D-Phe-Arg-Trp-Lys)-NH2], the “functional status at MC4r (agonist / partial agonist)” value on hMC4r [1] is on record as “agonist”. For the molecule `CC(=O)N[C@@H](CCCNC(=N)N)C(=O)N[C@H]1CCCNC(=O)CC[C@@H](C(N)=O)NC(=O)[C@H](Cc2c[nH]c3ccccc23)NC(=O)[C@H](CCCNC(=N)N)NC(=O)[C@@H](Cc2ccccc2)NC(=O)[C@H](CC(N)=O)NC1=O` [Peptide No. 154, Ac-Arg-cyclo(Orn-Asn-D-Phe-Arg-Trp-Glu)-NH2], in experiment [2], the “decrease in fasted plasma glucose, day -2 to day 12” value is reported as “most pronounced decrease”. Further, the “maximum weight loss compared to baseline (study day 0)” value was determined as 4.2 g in experiment [3] and 1.76 g in experiment [5]. Besides, in experiment [4], the “appetite on day 9” value is on record as “recovered on day 9”. For the same molecule, the “food intake after start of Peptide No. 154 dosing” value in experiment [4] (Peptide No. 154 s.c. from day 5) was “decreased starting on day 5”. The “feed intake at 2 and 6 hours post lights off compared with vehicle” value in experiment [4] (days 5-9) is listed as “significant decreased feed intakes”. The “body weight compared with vehicle” value in experiment [4] (subcutaneous dosing twice daily, days 5-10) is recorded as “decreased animal's body weight significantly”. As a reminder, the Ki is the equilibrium dissociation constant of an inhibitor or competing ligand from its target. In turn, `CC(=O)NCC[C@@H]1NC(=O)[C@@H](NC(=O)[C@H](CCCNC(=N)N)NC(C)=O)CC(=O)NCCCC[C@@H](C(N)=O)NC(=O)[C@H](Cc2c[nH]c3ccccc23)NC(=O)[C@H](CCCNC(=N)N)NC(=O)[C@@H](Cc2ccccc2)NC1=O` [compound 114, Ac-Arg-cyclo(Asp-Dab(Acetyl)-D-Phe-Arg-Trp-Lys)-NH2] yielded a Ki at hMC4r [6] of 0.088 µM. Turning to `CC(=O)N[C@@H](CCCNC(=N)N)C(=O)N[C@H]1CCCC(=O)NCC[C@@H](C(N)=O)NC(=O)[C@H](Cc2c[nH]c3ccccc23)NC(=O)[C@H](CCCNC(=N)N)NC(=O)[C@@H](Cc2ccccc2)NC(=O)[C@H](Cc2c[nH]cn2)NC1=O` [compound 126, Ac-Arg-cyclo(hGlu-His-D-Phe-Arg-Trp-Dab)-NH2], on hMC4r [1], the “functional status at MC4r (agonist / partial agonist)” value was “agonist”. As for `CC(=O)N[C@@H](CCCNC(=N)N)C(=O)N[C@H]1CCCC(=O)NCC[C@@H](C(N)=O)NC(=O)[C@H](Cc2c[nH]c3ccccc23)NC(=O)[C@H](CCCNC(=N)N)NC(=O)[C@@H](Cc2ccccc2)NC(=O)[C@H](CCN)NC1=O` [compound 127, Ac-Arg-cyclo(hGlu-Dab-D-Phe-Arg-Trp-Dab)-NH2], the “functional status at MC4r (agonist / partial agonist)” value at hMC4r [1] is reported as “agonist”. Regarding `CC(=O)N[C@@H](CCCNC(=N)N)C(=O)N[C@H]1CCNC(=O)CCC[C@@H](C(N)=O)NC(=O)[C@H](Cc2c[nH]c3ccccc23)NC(=O)[C@H](CCCNC(=N)N)NC(=O)[C@@H](Cc2ccccc2)NC(=O)[C@H](Cc2c[nH]cn2)NC1=O` [compound 128, Ac-Arg-cyclo(Dab-His-D-Phe-Arg-Trp-hGlu)-NH2], the “functional status at MC4r (agonist / partial agonist)” value at hMC4r [1] is on record as “agonist”. `CC(=O)N[C@@H](CCCNC(=N)N)C(=O)N[C@H]1CCNC(=O)CCC[C@@H](C(N)=O)NC(=O)[C@H](Cc2c[nH]c3ccccc23)NC(=O)[C@H](CCCNC(=N)N)NC(=O)[C@@H](Cc2ccccc2)NC(=O)[C@H](CCN)NC1=O` [compound 129, Ac-Arg-cyclo(Dab-Dab-D-Phe-Arg-Trp-hGlu)-NH2]: at hMC4r [1], the “functional status at MC4r (agonist / partial agonist)” value is on record as “agonist”. As for `CC(=O)N[C@@H](CCCNC(=N)N)C(=O)N[C@H]1CC(=O)NCCCC[C@@H](C(N)=O)NC(=O)[C@H](Cc2c[nH]c3ccccc23)NC(=O)[C@H](CCCNC(=N)N)NC(=O)[C@@H](Cc2ccccc2)NC(=O)[C@H](CCN)NC1=O` [compound 163, Ac-Arg-cyclo(Asp-Dab-D-Phe-Arg-Trp-Lys)-NH2], the Ki on hMC4r [7] came out at 0.004 µM. Regarding `CC(=O)N[C@@H](CCCNC(=N)N)C(=O)N[C@H]1CC(=O)NCCCC[C@@H](C(=O)O)NC(=O)[C@H](Cc2c[nH]c3ccccc23)NC(=O)[C@H](CCCNC(=N)N)NC(=O)[C@@H](Cc2ccccc2)NC(=O)[C@H](CCN)NC1=O` [compound 164, Ac-Arg-cyclo(Asp-Dab-D-Phe-Arg-Trp-Lys)-OH], the Ki on hMC4r [7] was determined as 0.057 µM.
